Laboratory results reported in PubChem BioAssay AID330 (DTP/NCI, 2004).
Values joined by “and” are separate entries in the source; they are usually repeats but may differ in a detail not shown here. Identical values can stand only once. Inconclusive results and toxic doses are left out. Rule for the calls: active = survival T/C of 150% or more; inactive = T/C below 125% in these data.

Tested on: P388 leukemia ip, CD2F1 mice, survival T/C
Experiment: NCI In Vivo Anticancer Drug Screen. Data for tumor model P388 Leukemia (intraperitoneal) in CD2F1 (CDF1) mice
Conditions: endpoint: median survival time, higher = longer survival
In short: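 Mice carrying the transplanted tumor received test compound or vehicle. Survival was recorded in each group, and the value is the treated-group measurement divided by that of the vehicle-treated control group.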

[1] = dose: 12.5 mg/kg/injection, schedule: Q04DX003 (ip), vehicle: Klucel (hydroxypropylcellulose) (HPC)
[2] = dose: 25.0 mg/kg/injection, schedule: Q04DX002 (ip), vehicle: saline with Tween-80
[3] = dose: 50.0 mg/kg/injection, schedule: Q04DX002 (ip), vehicle: saline with Tween-80
[4] = dose: 50.0 mg/kg/injection, schedule: Q01DX009 (ip), vehicle: Klucel (hydroxypropylcellulose) (HPC)
[5] = dose: 100.0 mg/kg/injection, schedule: Q01DX009 (ip), vehicle: Klucel (hydroxypropylcellulose) (HPC)
[6] = dose: 200.0 mg/kg/injection, schedule: Q01DX009 (ip), vehicle: Klucel (hydroxypropylcellulose) (HPC)
[7] = dose: 50.0 mg/kg/injection, schedule: Q01DX005 (ip), vehicle: Klucel (hydroxypropylcellulose) (HPC)
[8] = dose: 100.0 mg/kg/injection, schedule: Q01DX005 (ip), vehicle: Klucel (hydroxypropylcellulose) (HPC)
[9] = dose: 50.0 mg/kg/injection, schedule: Q01DX005 (ip), vehicle: saline with Tween-80
[10] = dose: 100.0 mg/kg/injection, schedule: Q01DX001 (ip), vehicle: saline with Tween-80
[11] = dose: 200.0 mg/kg/injection, schedule: Q01DX001 (ip), vehicle: saline with Tween-80
[12] = dose: 400.0 mg/kg/injection, schedule: Q01DX001 (ip), vehicle: saline with Tween-80

Measured: T/C

CN(CCO)c1ccc([N+](=O)[O-])c2nonc12
inactive: dose: 25.0 mg/kg/injection, schedule: Q04DX002 (ip), vehicle: saline 99 % of control and 103 % of control | dose: 50.0 mg/kg/injection, schedule: Q04DX002 (ip), vehicle: saline 99 % of control (2×) and 115 % of control | dose: 100.0 mg/kg/injection, schedule: Q04DX002 (ip), vehicle: saline 100 % of control and 101 % of control

Cn1ccc2c1CC(=O)NC2=O
inactive: dose: 3.12 mg/kg/injection, schedule: Q04DX003 (ip), vehicle: Klucel (hydroxypropylcellulose) (HPC) 100 % of control | dose: 6.25 mg/kg/injection, schedule: Q04DX003 (ip), vehicle: Klucel (hydroxypropylcellulose) (HPC) 108 % of control | [1] 114 % of control | dose: 100.0 mg/kg/injection, schedule: Q04DX003 (ip), vehicle: Klucel (hydroxypropylcellulose) (HPC) 106 % of control

O/N=C/C1CCCC[N-]1.O/N=C/C1CCCC[N-]1.O/N=C/C1CCCC[N-]1.[Cu] (configuration not stated)
inactive: dose: 1.56 mg/kg/injection, schedule: Q01DX009 (ip), vehicle: saline 87 % of control | dose: 3.12 mg/kg/injection, schedule: Q01DX009 (ip), vehicle: saline 96 % of control | dose: 6.25 mg/kg/injection, schedule: Q01DX009 (ip), vehicle: saline 87 % of control

O=C1C(O)=C(Cl)C(=O)C(O)=C1Cl
inactive: dose: 12.5 mg/kg/injection, schedule: Q01DX005 (ip), vehicle: saline 111 % of control | dose: 25.0 mg/kg/injection, schedule: Q01DX005 (ip), vehicle: saline 101 % of control | dose: 50.0 mg/kg/injection, schedule: Q01DX005 (ip), vehicle: saline 110 % of control | dose: 100.0 mg/kg/injection, schedule: Q01DX005 (ip), vehicle: saline 90 % of control

CC1=NCc2c(nnn2C)N1
inactive: dose: 100.0 mg/kg/injection, schedule: Q01DX001 (ip), vehicle: Klucel (hydroxypropylcellulose) (HPC) 104 % of control | dose: 200.0 mg/kg/injection, schedule: Q01DX001 (ip), vehicle: Klucel (hydroxypropylcellulose) (HPC) 101 % of control

N#CC1CC2(CCC1=O)c1ccccc1-c1ccccc12 (configuration not stated)
inactive: [2] 92 % of control | [3] 98 % of control

Cc1nn(C(N)=S)c(C)c1N=Nc1cccc(Cl)c1Cl
inactive: dose: 100.0 mg/kg/injection, schedule: Q04DX002 (ip), vehicle: Klucel (hydroxypropylcellulose) (HPC) 100 % of control | dose: 200.0 mg/kg/injection, schedule: Q04DX002 (ip), vehicle: Klucel (hydroxypropylcellulose) (HPC) 96 % of control | dose: 400.0 mg/kg/injection, schedule: Q04DX002 (ip), vehicle: Klucel (hydroxypropylcellulose) (HPC) 92 % of control

CCOC(=O)c1ccc(NC(=S)N(CCC#N)C2CCCCC2)cc1
inactive: [4] 93 % of control | [5] 102 % of control | [6] 98 % of control

O=C(N=Nc1c(O)[nH]c2c(Cl)cc(Cl)cc12)C(=O)Nc1cccc(C(F)(F)F)c1
inactive: dose: 6.25 mg/kg/injection, schedule: Q01DX009 (ip), vehicle: saline with Tween-80 95 % of control | dose: 12.5 mg/kg/injection, schedule: Q01DX009 (ip), vehicle: saline with Tween-80 93 % of control | dose: 25.0 mg/kg/injection, schedule: Q01DX009 (ip), vehicle: saline with Tween-80 95 % of control

[O-][n+]1cscc1-c1nc2ccccc2[nH]1
inactive: [7] 100 % of control | [8] 98 % of control | dose: 200.0 mg/kg/injection, schedule: Q01DX005 (ip), vehicle: Klucel (hydroxypropylcellulose) (HPC) 102 % of control

C/C(=N\NC(=S)N1CCCC1)c1ncccn1
inactive: [1] 108 % of control | dose: 25.0 mg/kg/injection, schedule: Q04DX003 (ip), vehicle: Klucel (hydroxypropylcellulose) (HPC) 108 % of control | dose: 50.0 mg/kg/injection, schedule: Q04DX003 (ip), vehicle: Klucel (hydroxypropylcellulose) (HPC) 112 % of control

CN(C)CC(O)c1ccc2cc(Br)c3ccccc3c2c1 (configuration not stated)
inactive: dose: 12.5 mg/kg/injection, schedule: Q01DX005 (ip), vehicle: saline with Tween-80 97 % of control | dose: 25.0 mg/kg/injection, schedule: Q01DX005 (ip), vehicle: saline with Tween-80 106 % of control | [9] 100 % of control and 97 % of control

Cc1ncc([N+](=O)[O-])n1Cc1nnc(N)s1
inactive: [4] 107 % of control | [5] 107 % of control | [6] 108 % of control

C=CCc1ccccc1C1=[N+](C)C(C)(C)CO1
inactive: [2] 100 % of control | [3] 102 % of control | dose: 100.0 mg/kg/injection, schedule: Q04DX002 (ip), vehicle: saline with Tween-80 97 % of control

Cc1ccc(N=Nc2c(O)n(-c3ccc(Br)cc3)c(=S)n(-c3ccccc3)c2=O)cc1
inactive: [10] 95 % of control | [11] 100 % of control | [12] 90 % of control

CSCCC(NC(=O)CNC(=O)OCc1ccccc1)C(=O)O (configuration not stated)
inactive: dose: 25.0 mg/kg/injection, schedule: Q01DX009 (ip), vehicle: Klucel (hydroxypropylcellulose) (HPC) 94 % of control | [4] 95 % of control | [5] 100 % of control | [6] 93 % of control | dose: 400.0 mg/kg/injection, schedule: Q01DX009 (ip), vehicle: Klucel (hydroxypropylcellulose) (HPC) 87 % of control

C=C1CC(NCC(=O)OCC)=C(O)C1=O
inactive: dose: 25.0 mg/kg/injection, schedule: Q01DX005 (ip), vehicle: Klucel (hydroxypropylcellulose) (HPC) 93 % of control | [7] 90 % of control | [8] 94 % of control

Cc1ncn2ncnc2c1C
inactive: dose: 25.0 mg/kg/injection, schedule: Q04DX003 (ip), vehicle: saline with Tween-80 103 % of control | dose: 50.0 mg/kg/injection, schedule: Q04DX003 (ip), vehicle: saline with Tween-80 104 % of control | dose: 100.0 mg/kg/injection, schedule: Q04DX003 (ip), vehicle: saline with Tween-80 101 % of control and 93 % of control

CC1=C/C(=N/OS(=O)(=O)c2ccc(C)cc2)CC(C)(C)C1
inactive: [9] 101 % of control | dose: 100.0 mg/kg/injection, schedule: Q01DX005 (ip), vehicle: saline with Tween-80 92 % of control | dose: 200.0 mg/kg/injection, schedule: Q01DX005 (ip), vehicle: saline with Tween-80 117 % of control

N#Cc1c(-c2ccc(Br)cc2)c(-c2ccc(Br)cc2)n[nH]c1=O
inactive: [10] 91 % of control | [11] 95 % of control | [12] 95 % of control
